Results published in patent US9512107B2, “Therapeutically active compositions and their methods of use” (Agios Pharmaceuticals, Inc., priority 2012, dated 2016).
Residue numbers refer to the chain shown, from its start. pIC50: −log10 of the molar value. Like-named read-outs stand apart in the source and are kept apart here.

Tests used:
[1] = target: T1, IDH2 R172K (Homo sapiens, UniProt P48735, R172K); test: IDH2 R172K enzymatic assay (NADPH cofactor depletion, diaphorase/resazurin readout); format: biochemical; settings: read-out: Enz R172K
T1 sequence (P48735 40-452 R172K): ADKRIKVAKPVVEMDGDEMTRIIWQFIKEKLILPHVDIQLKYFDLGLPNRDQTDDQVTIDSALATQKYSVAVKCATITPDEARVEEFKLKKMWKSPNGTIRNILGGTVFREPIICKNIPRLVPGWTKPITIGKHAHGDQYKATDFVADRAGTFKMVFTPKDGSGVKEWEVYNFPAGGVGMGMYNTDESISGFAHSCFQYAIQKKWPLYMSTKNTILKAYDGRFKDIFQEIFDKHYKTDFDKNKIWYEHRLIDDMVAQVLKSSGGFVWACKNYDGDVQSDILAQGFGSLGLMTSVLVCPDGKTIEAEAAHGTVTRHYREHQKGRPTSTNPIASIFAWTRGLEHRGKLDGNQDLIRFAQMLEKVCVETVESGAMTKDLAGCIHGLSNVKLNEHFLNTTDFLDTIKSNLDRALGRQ
Procedure, shortened: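 Compound was preincubated with IDH2 R172K for 1 h at room temperature, then the reaction was started with substrate mix containing 50 μM NADPH and 6.3 mM α-KG. After another 1 h at room temperature, stop mix with diaphorase and resazurin consumed the remaining NADPH, and resorufin fluorescence was read.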

[2] = target: T2, IDH2 R140Q (Homo sapiens, UniProt P48735, R140Q); test: IDH2 R140Q enzymatic assay (cofactor depletion, similar format); format: biochemical
T2 sequence (P48735 40-452 R140Q): T1 sequence (P48735 40-452 R172K) with R101Q, K133R

[3] = system: U87MG pLVX-IDH2 R140Q-neo cells; test: U87MG pLVX-IDH2 R140Q-neo cell based assay, 2-HG in media by LC-MS at 48 hours; settings: Homo sapiens, U-87 MG
Procedure, shortened: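 U87MG cells stably expressing IDH2 R140Q were seeded overnight, then exposed to compound at 0.2% final DMSO at 37 °C, 5% CO2. 2-HG in the medium was quantified by LC-MS at 48 h. Growth inhibition was read by CellTiter-Glo luminescence at 72 h.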

Row | pIC50 [1] | pIC50 ([2]; read-out: Enz R140Q) | pIC50 [3] | Structure (SMILES) | pIC50 ([2]; Enz R140Q)
1 | 6.00 to 7.00 | > 7.00 | > 7.00 | CC(Nc1nc(Nc2ccncc2)nc(-c2ccccc2)n1)C(C)(C)C (stereo not drawn) [Compound 255, N^2-(3,3-dimethylbutan-2-yl)-6-phenyl-N^4-(pyridin-4-yl)-1,3,5-triazine-2,4-diamine] | –
2 | 6.00 to 7.00 | > 7.00 | 6.00 to 7.00 | CC(Nc1nc(Nc2ccncc2)nc(-c2ccccc2)n1)C1CC1 (stereo not drawn) [Compound 257, N^2-(1-cyclopropylethyl)-6-phenyl-N^4-(pyridin-4-yl)-1,3,5-triazine-2,4-diamine] | –
3 | < 5.00 | 6.00 to 7.00 | 6.00 to 7.00 | CC(C)(CO)CNc1nc(Nc2ccncc2)nc(-c2ccccc2)n1 [Compound 259, 2,2-dimethyl-3-(4-phenyl-6-(pyridin-4-ylamino)-1,3,5-triazin-2-ylamino)propan-1-ol] | –
4 | > 7.00 | > 7.00 | > 7.00 | CCCCNc1nc(Nc2ccnc(Cl)c2)nc(-c2ccccc2)n1 [Compound 260] | –
5 | 6.00 to 7.00 | > 7.00 | > 7.00 | CC(C)(CO)CNc1nc(Nc2ccnc(Cl)c2)nc(-c2ccccc2)n1 [Compound 261] | –
6 | 5.00 to 6.00 | 6.00 to 7.00 | 6.00 to 7.00 | CCOCCNc1nc(Nc2ccncc2)nc(-c2ccccc2)n1 [Compound 262, N^2-(2-ethoxyethyl)-6-phenyl-N^4-(pyridin-4-yl)-1,3,5-triazine-2,4-diamine] | –
7 | 5.00 to 6.00 | > 7.00 | 6.00 to 7.00 | FC(F)(F)CCNc1nc(Nc2ccncc2)nc(-c2ccccc2)n1 [Compound 263, 6-phenyl-N^2-(pyridin-4-yl)-N^4-(3,3,3-trifluoropropyl)-1,3,5-triazine-2,4-diamine] | –
8 | 5.00 to 6.00 | > 7.00 | 6.00 to 7.00 | CC(C)Nc1nc(Nc2cncnc2)nc(-c2ccccc2)n1 [Compound 266, N^2-isopropyl-6-phenyl-N^4-(pyrimidin-5-yl)-1,3,5-triazine-2,4-diamine] | –
9 | 6.00 to 7.00 | > 7.00 | > 7.00 | COCC(C)Nc1nc(Nc2ccccc2)nc(-c2ccccc2)n1 (stereo not drawn) [Compound 269, N^2-(1-methoxypropan-2-yl)-N^4,6-diphenyl-1,3,5-triazine-2,4-diamine] | –
10 | 5.00 to 6.00 | 6.00 to 7.00 | 5.00 to 6.00 | CC(C)Nc1nc(Nc2cccc(S(=O)(=O)NC(C)(C)C)c2)nc(-c2ccccc2)n1 [Compound 342, N-tert-butyl-3-(4-(isopropylamino)-6-phenyl-1,3,5-triazin-2-ylamino)benzenesulfonamide] | –
11 | 5.00 to 6.00 | 6.00 to 7.00 | 6.00 to 7.00 | Cc1cc(Nc2nc(NC(=O)C(C)(C)C)nc(-c3ccccc3)n2)ccn1 [Compound 350] | –
12 | 6.00 to 7.00 | > 7.00 | > 7.00 | CC(C)(C)OC(=O)Nc1nc(Nc2ccccc2)nc(-c2ccccc2)n1 [Compound 416, Tert-butyl 4-phenyl-6-(phenylamino)-1,3,5-triazin-2-ylcarbamate] | –
13 | < 5.00 | 6.00 to 7.00 | 5.00 to 6.00 | CC(C)Nc1nc(Nc2ccc(S(C)(=O)=O)cc2)nc(-c2ccccc2)n1 [Compound 452, N2-isopropyl-N4-(4-(methylsulfonyl)phenyl)-6-phenyl-1,3,5-triazine-2,4-diamine] | –

Second part, the compound before the results:

Row | Structure (SMILES) | pIC50 [1] | pIC50 ([2]; read-out: Enz R140Q) | pIC50 [3] | pIC50 ([2]; Enz R140Q)
14 | FC1(F)CCC(Nc2nc(Nc3ccncc3)nc(-c3ccccc3)n2)CC1 [Compound 254, N^2-(4,4-difluorocyclohexyl)-6-phenyl-N^4-(pyridin-4-yl)-1,3,5-triazine-2,4-diamine] | 6.00 to 7.00 | > 7.00 | 6.00 to 7.00 | –
15 | O[C@@H]1CC[C@@H](Nc2nc(Nc3ccccc3)nc(-c3ccccc3)n2)C1 [Compound 267, (1R,3R)-3-(4-phenyl-6-(phenylamino)-1,3,5-triazin-2-ylamino)cyclopentanol] | 5.00 to 6.00 | > 7.00 | 6.00 to 7.00 | –
16 | c1ccc(Nc2nc(NC3CCCOC3)nc(-c3ccccc3)n2)cc1 (stereo not drawn) [Compound 268, N^2,6-diphenyl-N^4-(tetrahydro-2H-pyran-3-yl)-1,3,5-triazine-2,4-diamine] | 6.00 to 7.00 | > 7.00 | 6.00 to 7.00 | –
17 | CC(C)Nc1nc(Nc2ccccc2)nc(-c2cc(C(F)(F)F)ccn2)n1 [Compound 270, N^2-isopropyl-N^4-phenyl-6-(4-(trifluoromethyl)pyridin-2-yl)-1,3,5-triazine-2,4-diamine] | 6.00 to 7.00 | > 7.00 | 6.00 to 7.00 | –
18 | CC(C)Nc1nc(Nc2ccnc(C(F)(F)F)c2)nc(-c2cccc(C(F)(F)F)n2)n1 [Compound 335, N^2-isopropyl-6-(6-(trifluoromethyl)pyridin-2-yl)-N^4-(2-(trifluoromethyl)pyridin-4-yl)-1,3,5-triazine-2,4-diamine] | > 7.00 | 6.00 to 7.00 | > 7.00 | –
19 | FC(F)(F)c1cc(Nc2nc(NC3COC3)nc(-c3ccccn3)n2)ccn1 [Compound 336, N^2-(oxetan-3-yl)-6-(pyridin-2-yl)-N^4-(2-(trifluoromethyl)pyridin-4-yl)-1,3,5-triazine-2,4-diamine] | 6.00 to 7.00 | 6.00 to 7.00 | > 7.00 | –
20 | FC(F)(F)c1cccc(-c2nc(Nc3cnoc3)nc(NC3COC3)n2)n1 [Compound 337, N^2-(isoxazol-4-yl)-N^4-(oxetan-3-yl)-6-(6-(trifluoromethyl)pyridin-2-yl)-1,3,5-triazine-2,4-diamine] | 5.00 to 6.00 | 6.00 to 7.00 | 6.00 to 7.00 | –
21 | CC(C)Nc1nc(Nc2cc(F)cc(F)c2)nc(-c2cccc(Cl)n2)n1 [Compound 340, 6-(6-chloropyridin-2-yl)-N^2-(3,5-difluorophenyl)-N^4-isopropyl-1,3,5-triazine-2,4-diamine] | > 7.00 | > 7.00 | > 7.00 | –
22 | CC(C)Nc1nc(Nc2cccc(S(=O)(=O)NC3CC3)c2)nc(-c2ccccc2)n1 [Compound 341, N-cyclopropyl-3-(4-(isopropylamino)-6-phenyl-1,3,5-triazin-2-ylamino)benzenesulfonamide] | 6.00 to 7.00 | > 7.00 | > 7.00 | –
23 | CC(C)Nc1nc(Nc2ccc(F)nc2)nc(-c2cccc(Cl)n2)n1 [Compound 344, 6-(6-chloropyridin-2-yl)-N^2-(6-fluoropyridin-3-yl)-N^4-isopropyl-1,3,5-triazine-2,4-diamine] | > 7.00 | 6.00 to 7.00 | > 7.00 | –
24 | Fc1ccc(Nc2nc(NC3CCC3)nc(-c3ccccn3)n2)cn1 [Compound 345, N^2-cyclobutyl-N^4-(6-fluoropyridin-3-yl)-6-(pyridin-2-yl)-1,3,5-triazine-2,4-diamine] | 6.00 to 7.00 | 6.00 to 7.00 | 6.00 to 7.00 | –
25 | CC(C)Nc1nc(Nc2cccc(S(C)(=O)=O)c2)nc(-c2cccc(C(F)(F)F)n2)n1 [Compound 358, N^2-isopropyl-N^4-(3-(methylsulfonyl)phenyl)-6-(6-(trifluoromethyl)pyridin-2-yl)-1,3,5-triazine-2,4-diamine] | 6.00 to 7.00 | 6.00 to 7.00 | > 7.00 | –
26 | CC(C)Nc1nc(Nc2cncc(C(F)(F)F)c2)nc(-c2ccccc2F)n1 [Compound 372, 6-(2-fluorophenyl)-N^2-isopropyl-N^4-(5-(trifluoromethyl)pyridin-3-yl)-1,3,5-triazine-2,4-diamine] | > 7.00 | > 7.00 | > 7.00 | –
27 | CC(C)Nc1nc(Nc2cncc(F)c2)nc(-c2ccccc2F)n1 [Compound 374, 6-(2-fluorophenyl)-N^2-(5-fluoropyridin-3-yl)-N^4-isopropyl-1,3,5-triazine-2,4-diamine] | > 7.00 | > 7.00 | > 7.00 | –
28 | CC(C)Nc1nc(Nc2cncc(C(F)(F)F)c2)nc(-c2cccc(C(F)(F)F)n2)n1 [Compound 386, N^2-isopropyl-6-(6-(trifluoromethyl)pyridin-2-yl)-N^4-(5-(trifluoromethyl)pyridin-3-yl)-1,3,5-triazine-2,4-diamine] | > 7.00 | 6.00 to 7.00 | > 7.00 | –
29 | CC(C)(O)CNc1nc(Nc2ccnc(C(F)(F)F)c2)nc(-c2cccc(C(F)(F)F)n2)n1 [Compound 409, 2-methyl-1-(4-(6-(trifluoromethyl)pyridin-2-yl)-6-(2-(trifluoromethyl)pyridin-4-ylamino)-1,3,5-triazin-2-ylamino)propan-2-ol] | 6.00 to 7.00 | – | > 7.00 | 6.00 to 7.00
